The values that follow come from PMC10668980, “Molecular Cloning, Heterologous Expression, Purification, and Evaluation of Protein–Ligand Interactions of CYP51 of Candida krusei Azole-Resistant Fungal Strain” (Biomedicines, 2023).

Where two headings read alike, the source gives them in different places.

By Kd is commonly meant the concentration at which binding is half-saturated.

Assay [1] has as its target T1, C. krusei CYP51 (C.krCYP51) (Pichia kudriavzevii, UniProt A9YUC7, K136R). Conditions: for ΔAmax: absorbance change at ligand saturation; for Type of Spectral Response: difference spectrum 350–500 nm.
Procedure: (§1) Dissociation constants of complexes of CYP51 with the substrate, inhibitors, and potential ligands were determined by the spectrophotometric titration method in [37]. Briefly, a protein solution (final concentration of 1 μM) in buffer (50 mM potassium phosphate buffer, pH 7.4) was placed in two cuvettes (1 × 1 cm), and a baseline was recorded on a spectrophotometer at a wavelength of 350–500 nm. The spectra were detected with a Cary 5000 UV-VIS-NIR spectrophotometer. A ligand solution was added to the experimental cuvette and an equal volume of solvent was added to the control cuvette; the change in optical absorption was recorded in the same wavelength range. The solutions in the cuvettes were thoroughly mixed by pipetting after adding the ligand solution or solvent and incubated for 1–2 min. The maximum and minimum absorption values were registered.
(§2) The dissociation constant of the enzyme–ligand complex (Kd) was used as a parameter characterizing the strength of ligand binding in the active site.
Assay [2] addresses T1, C. krusei CYP51 (C.krCYP51). The experiment in a line: biochemical.
Procedure: as §1, §2

T1 sequence (A9YUC7 2-528 K136R): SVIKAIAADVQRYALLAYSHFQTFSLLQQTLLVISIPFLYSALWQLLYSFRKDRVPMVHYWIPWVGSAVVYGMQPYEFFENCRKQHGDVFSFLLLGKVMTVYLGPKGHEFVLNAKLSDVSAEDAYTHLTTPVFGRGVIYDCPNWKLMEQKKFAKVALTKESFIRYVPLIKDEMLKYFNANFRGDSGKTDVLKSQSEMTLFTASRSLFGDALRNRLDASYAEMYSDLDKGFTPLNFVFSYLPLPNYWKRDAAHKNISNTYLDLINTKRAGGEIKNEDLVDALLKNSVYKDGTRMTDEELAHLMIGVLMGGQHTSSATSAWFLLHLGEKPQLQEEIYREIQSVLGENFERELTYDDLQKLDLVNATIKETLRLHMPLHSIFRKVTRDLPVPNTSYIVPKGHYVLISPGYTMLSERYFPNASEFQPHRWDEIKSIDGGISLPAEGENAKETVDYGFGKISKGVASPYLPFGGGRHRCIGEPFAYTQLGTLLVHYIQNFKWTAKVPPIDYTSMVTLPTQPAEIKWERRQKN

For `CC(=O)O[C@@]12C=C[C@]3(C[C@H]1[N+](=O)[O-])C1CCc4cc(O)ccc4C1CC[C@@]32C` (stereo partly drawn) [73c, 14,17-etheno-3-hydroxy-16α-nitroestra-1,3,5(10)-trien-17β-yl acetate], in assay [1] (steroid derivatives), the ΔAmax is recorded as 0.0069 and the “Type of Spectral Response” value was “type I”. In addition, binding in assay [2] was characterised by a dissociation constant (Kd) of 10700 nM.

Turning to `c1ccc(-c2ccc(C(c3ccccc3)n3ccnc3)cc2)cc1` (stereo not drawn) [Bifonazole], in assay [1] (azoles), the ΔAmax is reported as 0.050 and the “Type of Spectral Response” value is “type II”. For the same compound, the affinity in assay [2], expressed as Kd, was 3 nM.

On to `COC1C(OC2CCC3(C)C(C(O)CC4(O)C3CCC3(C)C(C(C)CCC(OC5OC(CO)C(O)C5O)C(C)C)CC(O)C34)C2O)OCC(O)C1O` (stereo not drawn) [Ch-4, granulatoside A], for which, in assay [1] (steroid derivatives), the ΔAmax worked out at 0.0099 and the “Type of Spectral Response” value is given as “type I”. The Kd in assay [2] came out at 6950 nM.

On to `CC(C)=CCC[C@@H](C)[C@H]1CC[C@@]2(C)C3=C(CC[C@]12C)[C@@]1(C)CC[C@H](O)C(C)(C)[C@@H]1CC3` [Lanosterol], for which, in assay [1] (steroid derivatives), the ΔAmax is on record as 0.031 and the “Type of Spectral Response” value is “type I”. Besides, the affinity in assay [2], expressed as Kd, was 2820 nM.

Consider `C[C@@H](c1ncncc1F)[C@](O)(Cn1cncn1)c1ccc(F)cc1F` [Voriconazole], for which, in assay [1] (azoles), the ΔAmax is listed as 0.023 and the “Type of Spectral Response” value is given as “type II”. The Kd in assay [2] was found to be 10 nM.

As to `CC(C)C(C=C[C@](C)(O)[C@H]1CC[C@H]2[C@@H]3CC=C4C[C@@H](O)CC[C@]4(C)[C@H]3CC[C@@]21C)=NO` [compound 99, 3β,20-dihydroxy-24-hydroxyiminocholest-5,22-diene], in assay [1] (steroid derivatives), the ΔAmax came to 0.0047 and the “Type of Spectral Response” value is listed as “type I”. The compound further registered a Kd in assay [2] of 1020 nM.
